Results published in ChEMBL document CHEMBL1130502, “Lipopeptide antifungal agents: Amine conjugates of the semi-synthetic pneumocandins L-731,373 and L-733,560” (Bioorg Med Chem Lett, 1997).
In brackets after ≈: the same amount, converted by molar mass. *1 amine or outer side, *2 acyl side, *3 side chain or, on linkers, in order; H or OH if unused. Where a SMILES comes first, the peptide text is derived from it. Bridges are numbered along the chain shown (N, C = ends). [ ]: non-standard residue; d: D form. The star is where a group is joined. ξ: configuration not given here. ξOrn(4R-OH,5R-OH) = O=C(C(C[C@@H](O)[C@@H](O)N[*:3])N[*:1])[*:2]; hTyr(3S-OH,4S-OH) = N[C@H](C(=O)O)[C@H](O)[C@@H](O)c1ccc(O)cc1; Orn(3R-OH) = NCC[C@@H](O)[C@H](N)C(=O)O; X2 = O=C(C1CN([*:1])C[C@@H]1O)[*:2]; ξPro(4R-OH) = O=C(O)C1C[C@@H](O)CN1; X1 = CCC(C)CC(C)CCCCCCCCC(=O)*

Key:
1,3-beta-glucan synthase = 1,3-beta-glucan synthase (Candida glabrata, UniProt F5BCZ9); experiment: Inhibition of 1,3-beta-glucan synthase; set-up: species or system Candida glabrata CBS 138
Candida albicans = experiment: Tested for minimum fungicidal concentration (MFC) against Candida albicans (MY 1055); assay type: functional
Mus musculus [1] = species on record: Mus musculus; experiment: […] anti-candida activity expressed as ED99.9 in a mouse model of disseminated candidiasis (TOKA); assay type: functional
Mus musculus [2] = species on record: Mus musculus; experiment: Percentage of mice with complete eradication of candida in kidneys; assay type: functional, Kidney
[3] = Acute toxicity in mice after intravenous administration; conditions: mouse, in vivo
Mus musculus [4] = experiment: In vivo effective intraperitoneal dose to achieve least 50% survival in a mouse model of disseminated aspergillosis; assay type: functional; conditions: ip

Chain of 1,3-beta-glucan synthase (F5BCZ9 whole entry): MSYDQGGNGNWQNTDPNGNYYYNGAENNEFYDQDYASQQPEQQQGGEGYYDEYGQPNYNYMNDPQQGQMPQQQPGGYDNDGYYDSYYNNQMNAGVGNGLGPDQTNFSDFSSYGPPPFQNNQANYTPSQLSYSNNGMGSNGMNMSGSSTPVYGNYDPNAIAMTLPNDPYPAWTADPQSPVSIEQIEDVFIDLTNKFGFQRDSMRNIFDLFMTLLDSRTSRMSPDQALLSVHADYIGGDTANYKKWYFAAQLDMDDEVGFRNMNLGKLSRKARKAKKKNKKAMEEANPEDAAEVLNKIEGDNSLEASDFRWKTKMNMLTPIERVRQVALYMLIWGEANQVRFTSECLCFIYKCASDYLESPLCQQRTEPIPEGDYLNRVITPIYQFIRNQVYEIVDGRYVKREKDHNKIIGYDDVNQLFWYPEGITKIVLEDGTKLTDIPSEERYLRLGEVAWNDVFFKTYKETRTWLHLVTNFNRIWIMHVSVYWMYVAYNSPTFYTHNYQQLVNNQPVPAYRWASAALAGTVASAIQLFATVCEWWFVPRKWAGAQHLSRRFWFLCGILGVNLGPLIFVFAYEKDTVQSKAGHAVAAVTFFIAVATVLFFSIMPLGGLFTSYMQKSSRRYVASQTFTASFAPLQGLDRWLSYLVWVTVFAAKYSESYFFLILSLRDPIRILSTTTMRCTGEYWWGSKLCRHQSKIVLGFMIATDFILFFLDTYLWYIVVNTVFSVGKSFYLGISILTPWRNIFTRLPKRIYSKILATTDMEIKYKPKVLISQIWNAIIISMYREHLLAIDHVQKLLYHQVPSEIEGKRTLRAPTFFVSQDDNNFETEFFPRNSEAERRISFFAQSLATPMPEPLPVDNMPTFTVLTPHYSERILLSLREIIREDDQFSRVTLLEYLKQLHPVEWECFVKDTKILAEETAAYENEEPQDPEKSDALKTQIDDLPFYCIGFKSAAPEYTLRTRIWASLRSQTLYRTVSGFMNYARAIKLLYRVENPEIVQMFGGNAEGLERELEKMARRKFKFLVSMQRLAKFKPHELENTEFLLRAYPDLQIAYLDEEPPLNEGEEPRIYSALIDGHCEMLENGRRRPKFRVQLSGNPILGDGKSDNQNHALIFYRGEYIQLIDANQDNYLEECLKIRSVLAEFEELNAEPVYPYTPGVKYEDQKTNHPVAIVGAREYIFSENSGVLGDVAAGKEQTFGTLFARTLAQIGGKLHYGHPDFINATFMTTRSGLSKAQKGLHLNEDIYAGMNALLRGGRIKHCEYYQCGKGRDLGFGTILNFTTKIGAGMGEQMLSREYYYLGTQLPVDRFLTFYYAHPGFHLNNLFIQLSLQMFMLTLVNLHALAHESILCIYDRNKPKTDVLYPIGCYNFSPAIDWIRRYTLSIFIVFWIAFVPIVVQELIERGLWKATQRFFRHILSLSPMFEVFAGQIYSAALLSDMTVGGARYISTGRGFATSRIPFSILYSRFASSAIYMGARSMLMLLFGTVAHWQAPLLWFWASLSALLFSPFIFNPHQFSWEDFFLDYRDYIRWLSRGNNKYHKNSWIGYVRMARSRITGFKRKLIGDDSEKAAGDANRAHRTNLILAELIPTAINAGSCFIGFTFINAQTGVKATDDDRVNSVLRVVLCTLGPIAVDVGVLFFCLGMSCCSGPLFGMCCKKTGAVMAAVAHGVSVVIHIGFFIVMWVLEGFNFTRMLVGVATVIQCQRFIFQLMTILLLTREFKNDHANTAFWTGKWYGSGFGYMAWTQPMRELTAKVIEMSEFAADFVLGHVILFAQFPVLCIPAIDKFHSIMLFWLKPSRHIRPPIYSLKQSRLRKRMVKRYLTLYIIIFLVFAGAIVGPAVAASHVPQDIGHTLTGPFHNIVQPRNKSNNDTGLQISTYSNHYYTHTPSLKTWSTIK

| Structure (SMILES) | IC50 (1,3-beta-glucan synthase) | MFC (Candida albicans) | ED99.9 (Mus musculus [1]) | Sterilized (Mus musculus [2]) | Dose [3] | ED50 (Mus musculus [4]) |
| --- | --- | --- | --- | --- | --- | --- |
| CCC(C)CC(C)CCCCCCCCC(=O)NC1C[C@@H](O)[C@@H](O)NC(=O)C2CN(C[C@@H]2O)C(=O)[C@H]([C@H](O)CCNC(=O)[C@@H](N)CCCN)NC(=O)[C@H]([C@H](O)[C@@H](O)c2ccc(O)cc2)NC(=O)C2C[C@@H](O)CN2C(=O)[C@H]([C@@H](C)O)NC1=O (stereo partly drawn) | 3 nM | < 0.06 µg/mL | 0.375 mg/kg | 20% | > 200 mg/kg |  |
| CCC(C)CC(C)CCCCCCCCC(=O)NC1C[C@@H](O)[C@@H](OCCN)NC(=O)C2CN(C[C@@H]2O)C(=O)[C@H]([C@H](O)CCNC(=O)[C@@H](N)CN)NC(=O)[C@H]([C@H](O)[C@@H](O)c2ccc(O)cc2)NC(=O)C2C[C@@H](O)CN2C(=O)[C@H]([C@@H](C)O)NC1=O (stereo partly drawn) | 4 nM | 1 µg/mL (≈ 0.847 µM) | 0.375 mg/kg | 100% | > 100 mg/kg | 0.07 mg/kg |
| CCC(C)CC(C)CCCCCCCCC(=O)NC1C[C@@H](O)[C@@H](O)NC(=O)C2CN(C[C@@H]2O)C(=O)[C@H]([C@H](O)CCNC(C)=O)NC(=O)[C@H]([C@H](O)[C@@H](O)c2ccc(O)cc2)NC(=O)C2C[C@@H](O)CN2C(=O)[C@H]([C@@H](C)O)NC1=O (stereo partly drawn) | 300 nM | 2 µg/mL (≈ 1.83 µM) | 12 mg/kg | 0% | > 250 mg/kg |  |
| CCC(C)CC(C)CCCCCCCCC(=O)NC1C[C@@H](O)[C@@H](OCCN)NC(=O)C2CN(C[C@@H]2O)C(=O)[C@H]([C@H](O)CCNC(=O)[C@@H](N)CCN)NC(=O)[C@H]([C@H](O)[C@@H](O)c2ccc(O)cc2)NC(=O)C2C[C@@H](O)CN2C(=O)[C@H]([C@@H](C)O)NC1=O (stereo partly drawn) | 6 nM | 0.5 µg/mL (≈ 0.419 µM) | 0.09 mg/kg | 0% | 100 mg/kg |  |
| CCC(C)CC(C)CCCCCCCCC(=O)NC1C[C@@H](O)[C@@H](O)NC(=O)C2CN(C[C@@H]2O)C(=O)[C@H]([C@H](O)CCNC(=O)[C@@H](N)CCN)NC(=O)[C@H]([C@H](O)[C@@H](O)c2ccc(O)cc2)NC(=O)C2C[C@@H](O)CN2C(=O)[C@H]([C@@H](C)O)NC1=O (stereo partly drawn) | 60 nM | 0.25 µg/mL (≈ 0.217 µM) | 0.375 mg/kg | 60% | > 250 mg/kg |  |
| CCC(C)CC(C)CCCCCCCCC(=O)NC1C[C@@H](O)[C@@H](O)NC(=O)C2CN(C[C@@H]2O)C(=O)[C@H]([C@H](O)CCNC(=O)[C@@H](N)CCCCN)NC(=O)[C@H]([C@H](O)[C@@H](O)c2ccc(O)cc2)NC(=O)C2C[C@@H](O)CN2C(=O)[C@H]([C@@H](C)O)NC1=O (stereo partly drawn) | 10 nM | < 0.06 µg/mL | 0.375 mg/kg | 20% | 150 mg/kg |  |
| CCC(C)CC(C)CCCCCCCCC(=O)NC1C[C@@H](O)[C@@H](O)NC(=O)C2CN(C[C@@H]2O)C(=O)[C@H]([C@H](O)CCNC(=O)CCCCCN)NC(=O)[C@H]([C@H](O)[C@@H](O)c2ccc(O)cc2)NC(=O)C2C[C@@H](O)CN2C(=O)[C@H]([C@@H](C)O)NC1=O (stereo partly drawn) | 90 nM | 0.5 µg/mL (≈ 0.429 µM) | >1.5 mg/kg | 0% | 250 mg/kg |  |
| CCC(C)CC(C)CCCCCCCCC(=O)NC1C[C@@H](O)[C@@H](OCCN)NC(=O)C2CN(C[C@@H]2O)C(=O)[C@H]([C@H](O)CCNC(=O)[C@@H](N)CCCCN)NC(=O)[C@H]([C@H](O)[C@@H](O)c2ccc(O)cc2)NC(=O)C2C[C@@H](O)CN2C(=O)[C@H]([C@@H](C)O)NC1=O (stereo partly drawn) | 3 nM | 0.125 µg/mL (≈ 0.102 µM) | 0.09 mg/kg | 0% | 60 mg/kg | < 0.02 mg/kg |
| CCC(C)CC(C)CCCCCCCCC(=O)NC1C[C@@H](O)[C@@H](O)NC(=O)C2CN(C[C@@H]2O)C(=O)[C@H]([C@H](O)CCNC(=O)CCCCN)NC(=O)[C@H]([C@H](O)[C@@H](O)c2ccc(O)cc2)NC(=O)C2C[C@@H](O)CN2C(=O)[C@H]([C@@H](C)O)NC1=O (stereo partly drawn) | 20 nM | 0.5 µg/mL (≈ 0.435 µM) | 1.5 mg/kg | 0% | 250 mg/kg |  |
| CCC(C)CC(C)CCCCCCCCC(=O)NC1C[C@@H](O)[C@@H](O)NC(=O)C2CN(C[C@@H]2O)C(=O)[C@H]([C@H](O)CCNC(=O)CCCCCCN)NC(=O)[C@H]([C@H](O)[C@@H](O)c2ccc(O)cc2)NC(=O)C2C[C@@H](O)CN2C(=O)[C@H]([C@@H](C)O)NC1=O (stereo partly drawn) |  | 2 µg/mL (≈ 1.7 µM) | >1.5 mg/kg | 0% | 200 mg/kg |  |
| CCC(C)CC(C)CCCCCCCCC(=O)NC1C[C@@H](O)[C@@H](O)NC(=O)C2CN(C[C@@H]2O)C(=O)[C@H]([C@H](O)CCNC(=O)CN)NC(=O)[C@H]([C@H](O)[C@@H](O)c2ccc(O)cc2)NC(=O)C2C[C@@H](O)CN2C(=O)[C@H]([C@@H](C)O)NC1=O (stereo partly drawn) | 15 nM | 0.5 µg/mL (≈ 0.451 µM) | 0.375 mg/kg | 20% | 250 mg/kg |  |
| CCC(C)CC(C)CCCCCCCCC(=O)NC1C[C@@H](O)[C@@H](O)NC(=O)C2CN(C[C@@H]2O)C(=O)[C@H]([C@H](O)CCNC(=O)CCN)NC(=O)[C@H]([C@H](O)[C@@H](O)c2ccc(O)cc2)NC(=O)C2C[C@@H](O)CN2C(=O)[C@H]([C@@H](C)O)NC1=O (stereo partly drawn) | 25 nM | 0.125 µg/mL (≈ 0.111 µM) | 1.5 mg/kg | 100% | 250 mg/kg |  |
| CCC(C)CC(C)CCCCCCCCC(=O)NC1C[C@@H](O)[C@@H](O)NC(=O)C2CN(C[C@@H]2O)C(=O)[C@H]([C@H](O)CCNC(=O)CCCN)NC(=O)[C@H]([C@H](O)[C@@H](O)c2ccc(O)cc2)NC(=O)C2C[C@@H](O)CN2C(=O)[C@H]([C@@H](C)O)NC1=O (stereo partly drawn) | 50 nM | < 0.06 µg/mL | 1.5 mg/kg | 40% | > 100 mg/kg |  |
| CCC(C)CC(C)CCCCCCCCC(=O)NC1C[C@@H](O)[C@@H](O)NC(=O)C2CN(C[C@@H]2O)C(=O)[C@H]([C@H](O)CCNC(=O)[C@@H](N)CN)NC(=O)[C@H]([C@H](O)[C@@H](O)c2ccc(O)cc2)NC(=O)C2C[C@@H](O)CN2C(=O)[C@H]([C@@H](C)O)NC1=O (stereo partly drawn) | 30 nM | 1 µg/mL (≈ 0.879 µM) | 1.5 mg/kg | 100% | > 250 mg/kg | > 1.25 mg/kg |
| CCC(C)CC(C)CCCCCCCCC(=O)NC1C[C@@H](O)[C@@H](O)NC(=O)C2CN(C[C@@H]2O)C(=O)[C@H]([C@H](O)CCN)NC(=O)[C@H]([C@H](O)[C@@H](O)c2ccc(O)cc2)NC(=O)C2C[C@@H](O)CN2C(=O)[C@H]([C@@H](C)O)NC1=O (stereo partly drawn) (X1-[ξOrn(4R-OH,5R-OH)]T[ξPro(4R-OH)][hTyr(3S-OH,4S-OH)][Orn(3R-OH)][X2]; lactam 1-C) | 10 nM | < 0.06 µg/mL | 0.375 mg/kg | 70% | 100 mg/kg | > 20 mg/kg |
